Common to all, as to assay type: biochemical
One experiment relates to hexokinase. The experiment can be described thus: Hexokinase activity (NADPH generation). As to conditions: 10 μM, 60 min at 25° C. As for the experimental part:
The effect of DB2ClPP on hexokinase activity was assayed. Hexokinase was incubated with solvent, 10 mM iodoacetamide (a known hexokinase inhibitor), or 10 μM DB2CPP for 60 min at 25° C. Enzyme activity is given as the nmoles of NADPH generated per min at 25° C. Data shown are the mean of three replicates ±SEM. (FIG. 6)

For experiment [1], the target named is T1, Acetylcholinesterase (from electric eel) (Electrophorus electricus, UniProt O42275).
T1 construct: Acetylcholinesterase (from electric eel); purchased Sigma; host or cells: electric eel (natural source)
The experiment can be described thus: Acetylcholinesterase activity, Ellman assay after pre-incubation with inhibitor. The following applies: 100 μM compound, 60 minutes at 25° C.; read-out: % Activity ± SD (acetylcholinesterase activity relative to enzyme incubated with solvent). As for the experimental part:
Acetylcholinesterase (from electric eel), butyrylcholinesterase (from horse serum), DTNB, butyrylthiocholine, acetylthiocholine, and BSA were purchased from Sigma. The dialkyl 2-chlorophenyl (and 4-chlorophenyl) phosphates were solubilized in reagent grade methanol.
Cholinesterase activity measurements were performed essentially according to the method of Ellman (Biochemical Pharmacology 7:88-90, 1961). The composition of the assay mixture was 0.1 M sodium phosphate, pH 7.5, 0.033 M DTNB, 0.001 M MgCl2, and 100 μg/mL of BSA containing appropriate amounts of substrate and inhibitor. Each assay was initiated by the addition of substrate and the activity quantified by measuring the formation of the thionitrobenzoate anion at 412 nm at 37° C. Methanol used to solubilize the dialkyl phenyl phosphates [1% (v/v) final concentration] had no inhibitory effect on either enzyme.
Butyrylcholinesterase was pre-incubated at room temperature with inhibitor in the assay cocktail minus substrate for varying periods of time at 25° C. Substrate was then added and the activity measured as described above. The relative rates of enzyme inactivation were determined by plotting enzyme activity versus time of pre-incubation with inhibitor. Results were expressed as the rate constant for the rate of enzyme inactivation. In the case of AcChase, results were expressed as the % of activity remaining relative to the enzyme incubated only with solvents.
The first series of experiments determined the effect of the dialkyl 2-chlorophenyl (and 4-chlorophenyl) phosphates on both AcChase and BuChase. None of the compounds had any inhibitory effect on AcChase (See Table 1). In Table 1, AcChase was incubated with 100 μM of the indicated phenyl phosphate for 60 minutes at 25° C. and then assayed as described above. Results were expressed as the % activity relative to enzyme incubated with solvent ±SD (standard deviation).
On the technique in general: In Ellman's method for cholinesterases, released thiocholine reacts with DTNB.

The next experiment relates to chymotrypsin. The experiment can be described thus: Chymotrypsin activity (ATEE hydrolysis). The following applies: 10 μM, 60 minutes at 25° C. The method, then: The effect of DB2ClPP on the activity of chymotrypsin was assayed. […] was incubated with solvent, 10 μM DB2CPP, or 10 μM PMSF (a known inhibitor of chymotrypsin) for 60 minutes at 25° C. to determine any inhibitory effect of DB2CPP on enzymatic activity. Enzyme activity is given as nmoles of ATEE hydrolyzed per minute at 25° C. Data shown are the mean of three replicates ±SEM. (FIG. 4)

The test system of a further experiment is Protein Kinase A (PKA). Nature of the experiment: Protein kinase A activity (histone substrate, Pro-Q stain). The following applies: varying concentrations, 30 minutes on ice, then ATP 30° C. 15 minutes. As for the experimental part: For protein kinase activity, histone was used as the substrate for protein kinase A (PKA) and glutathione-S-transferase-S6 (GST-S6) for S6K2. Enzyme was pre-incubated with substrate and varying concentrations of inhibitor on ice for 30 minutes. The control sample contained solvent (methanol). ATP was then added to each sample and the cocktail incubated at 30° C. for 15 minutes. Equal amounts of each mixture were fractionated by SDS-PAGE on a 10% acrylamide gel. The gel was fixed in 50% methanol/10% acetic acid, washed with water, and then stained in Pro-Q Stain in the dark for 60 minutes. The gel was then destained, washed, and scanned on a Typhoon Imager (FIG. 5).

These results are taken from US9757399B2, “Butyrylcholinesterase inhibitors” (priority 2006, dated 2017).

T1 sequence (O42275 24-633): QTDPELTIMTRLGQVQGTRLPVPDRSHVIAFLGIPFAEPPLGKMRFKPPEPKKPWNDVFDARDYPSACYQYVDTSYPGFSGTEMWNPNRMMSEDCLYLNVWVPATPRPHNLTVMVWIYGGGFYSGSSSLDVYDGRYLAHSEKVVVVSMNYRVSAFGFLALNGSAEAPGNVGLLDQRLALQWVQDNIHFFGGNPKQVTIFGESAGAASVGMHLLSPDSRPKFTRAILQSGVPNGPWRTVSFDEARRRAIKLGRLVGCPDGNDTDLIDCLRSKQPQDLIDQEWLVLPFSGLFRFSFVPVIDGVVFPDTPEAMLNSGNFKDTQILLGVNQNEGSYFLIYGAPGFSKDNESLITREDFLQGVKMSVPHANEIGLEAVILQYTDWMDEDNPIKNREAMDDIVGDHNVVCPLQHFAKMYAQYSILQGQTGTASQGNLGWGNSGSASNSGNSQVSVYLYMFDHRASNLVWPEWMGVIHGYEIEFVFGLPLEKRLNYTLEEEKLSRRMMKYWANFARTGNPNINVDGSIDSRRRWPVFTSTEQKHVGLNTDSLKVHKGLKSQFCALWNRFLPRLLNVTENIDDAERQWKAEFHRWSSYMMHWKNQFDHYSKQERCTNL

As for `CCCCOP(=O)(OCCCC)Oc1ccccc1Cl` [DB2ClPP, Di-n-butyl 2-chlorophenyl phosphate], in the experiment on hexokinase, the “effect on hexokinase activity (FIG. 6)” value is “none of the above mentioned enzymes were affected”. Also, the activity at 100 µM in experiment [1] came to 97.6 ± 0.029%. Moreover, the “effect on chymotrypsin activity (FIG. 4)” value in the experiment with chymotrypsin is given as “none of the above mentioned enzymes were affected”. Besides, the “effect on PKA activity (FIG. 5)” value in the experiment with Protein Kinase A (PKA) was “none of the above mentioned enzymes were affected”.
